How the values were obtained:
cathepsin K/CSA complex = molecular target: T1, cathepsin K/CSA complex (Homo sapiens, UniProt P43235); experiment: Soluble type I collagen digestion by cathepsin K, analysed by SDS-PAGE; assay type: biochemical; conditions: 28° C.; for effect on type I collagen degradation by cathepsin K in the presence of CSA: 0.15% test substance + 0.15% CSA, 800 nM cathepsin K; for collagenase activity of the complex formed with cathepsin K (type I collagen): 0.15% polymer, pH 5.5
T1 construct: may comprise the native mature cathepsin K peptide
T1 sequence (P43235 115-329): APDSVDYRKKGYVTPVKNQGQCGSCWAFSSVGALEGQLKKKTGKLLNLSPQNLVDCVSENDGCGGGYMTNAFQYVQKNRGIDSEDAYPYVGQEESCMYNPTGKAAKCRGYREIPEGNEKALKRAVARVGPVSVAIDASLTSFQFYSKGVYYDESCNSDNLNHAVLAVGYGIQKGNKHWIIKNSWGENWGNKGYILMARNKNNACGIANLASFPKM
Procedure: Soluble type I bovine collagen was digested with 800 nM cathepsin K at 28° C., in 100 mM sodium acetate buffer pH 5.5, containing 2.5 mM EDTA/DTT. The reaction was stopped by the addition of 10 μM E-64 after various time periods and the samples were analyzed by 4-20% SDS-Page. […] The reaction was stopped by the addition of 10 μM E-64 after 8 h of incubation and the samples were analyzed by 4-20% SDS-polyacrylarnide electrophoresis.
Soluble type I bovine collagen was digested with 800 nM purified recombinant human cathepsin K and gelatin (soluble type I collagen was heated for 20 min at 70 C) with 0.5 nM cathepsin K at 28° C. and 37 C, in 100 mM sodium acetate buffer, pH 5.5, containing 2.5 mM EDTA/DTT. […] The reaction was stopped by the addition of 10 μM E-64 after 8 h of incubation and the samples were analyzed by 4-20% SDS-polyacrylamide electrophoresis.
The reactions were stopped by the addition of 10 μM E-64 and the samples were analyzed by 4-20% SDS-Page.
(§1) The elution buffer was 100 mM sodium acetate, pH 5.5, 1 mM EDTA/DTT. […] The reaction was stopped by the addition of 10 μM E-64 and the samples were analyzed by 4-20% SDS-Page.
as §1
The reaction was stopped by the addition of 10 μM E-64 and the samples were analyzed by 4-20% SDS-Page.
as §1, §1

cathepsin K [1] = molecular target: T2, cathepsin K (Homo sapiens, UniProt P43235); experiment: Superdex 200 gel filtration of cathepsin K preincubated with polymers; assay type: binding; conditions: for effect on CSA/cathepsin K complex formation: 0.15% test substance + 0.15% CSA, gel filtration; for formation of a high molecular weight complex with cathepsin K: 0.15% test substance without CSA; for elution volume (Ve) of the complex with cathepsin K: 30 μg cathepsin K preincubated with 0.15% polymer, Superdex 200, no NaCl
T2 construct: may comprise the native mature cathepsin K peptide
T2 sequence (P43235 115-329): T1 sequence (P43235 115-329)
Procedure: The elution buffer was 100 mM sodium acetate, pH 5.5, 1 mM EDTA/DTT.
The protein elution was recorded at OD280 nm and fractions were assayed for the hydrolysis of the cathepsin K substrate Z-Leu-Arg-MCA. […] The sample was loaded into the well of a 0.5% agarose gel and separated at room temperature at 55 V, 250 mA for 30 min in a running buffer containing 125 mM sodium acetate, pH 5.0,0.5 mM EDTA, 1 mM DTT, 40 mM NaCl, and 0.1% Chaps. The gel was dried and subsequently exposed to an X-ray film. The conditions for lane 3 were modified by the addition of 300 mM NaCl into the agarose gel and running buffer. […] Activity assays were performed using Z-LR-MCA as substrate in 100 mM sodium acetate buffer, pH 5.5, containing 2.5 mM EDTA/DTT and 0.5 nM recombinant human cathepsin K.
30 μg of cathepsin K were preincubated with elution buffer containing 0.15% low molecular fraction (V3 67.2 ml) of dermatan sulfate (DS) 0.15% 2-15 kD poly-D-Glu, or 0.15% 10 kD dextran sulfate for 20 min, and then applied to a Superdex 200 column. The elution buffer was 100 mM sodium acetate, pH 5.5, containing 1 mM EDTA/DTT.
as §1, §1, §1, §1

CSA/Cat K complex = molecular target: T3, CSA/Cat K complex (Homo sapiens, UniProt P43235); experiment: Fluoresceinamine-labeled CSA/Cat K complex formation fluorescence assay; assay type: binding; conditions: 120 nM Cat K; 0.6 μg/ml FL-CSA; excitation 300 nm, emission 604 nm
T3 construct: may comprise the native mature cathepsin K peptide
T3 sequence (P43235 115-329): T1 sequence (P43235 115-329)
Procedure: Curve 1: 120 nM Cat K, then 0.6 μg/ml FL-CSA, and then 3 μg/ml dextran sulfate; Curve 2:,0.6 μg/ml FL-CSA, then 120 nM Cat K, and then 3 μg/ml dextran sulfate.
The pH was adjusted to pH 11 by addition of 5 M NaOH. […] The mixture was kept overnight at 4° C. for the coupling reaction. Subsequently, the mixture was concentrated to 1 ml using a SpeedVac concentrator and purified on a PD-10 column and eluded by 50 mM sodium acetate buffer, pH 5.5.
Cat K at a final concentration of 120 nM was added to 1 ml 100 mM sodium acetate buffer, pH 5.5 containing 2 mM EDTA/DTT using 2 milliliter cuvettes. The fluorescence signal for the protein alone is close to zero. […] After the addition of complex formation inhibitors, the fluorescence signal dropped to zero (FIG. 1). This assay allows the simple and convenient screening of compounds capable to interfere with complex formation.

cathepsin K [2] = molecular target: T2, cathepsin K; experiment: Agarose gel electrophoretic mobility shift assay of cathepsin K complexes; assay type: binding; conditions: for effect on CSA/cathepsin K complex formation: 0.15% test polymer + 0.15% CSA, mobility shift; for affinity to cathepsin K relative to CSA: inferred from competition with 0.15% CSA
Procedure: The protein elution was recorded at OD280 nm and fractions were assayed for the hydrolysis of the cathepsin K substrate Z-Leu-Arg-MCA. […] The gel was dried and subsequently exposed to an X-ray film. […] Activity assays were performed using Z-LR-MCA as substrate in 100 mM sodium acetate buffer, pH 5.5, containing 2.5 mM EDTA/DTT and 0.5 nM recombinant human cathepsin K.
After exposure of the dried gel to an X-ray film, the signal of free cathepsin K was densitometrically determined and the amount of cathepsin K in the complex was calculated (cat Kcompley=cat Ktotal−cat Kfree).
Samples were subsequently mixed with non-reducing protein sample buffer, DNA dye, and melted agarose gel (melted at 37 C; 0.4% final concentration) at 37 C and embedded into a pre-made wells of a 0.5% agarose gel (running conditions: 25° C.; 55 V, 250 mA for 30 min). The gel was stained with toluidine blue for glycosaminoglycans and coomassie blue for protein.

[3] = Mobility shift assay of complex formation of proteases with CSA; assay type: binding; conditions: 50 ng [125I]DCG-04 labeled protease; 0.1% CSA
Procedure: The gel was run at about 25° C. 55 V, 250 mA for 30 min, then dried and developed the radio signal on a film.

**Q.** With `CC(=O)N[C@H]1C(O)O[C@H](CO)[C@H](OS(=O)(=O)O)[C@@H]1O[C@@H]1OC(C(=O)O)=C[C@H](O)[C@H]1O` (stereo partly drawn) [CSA disaccharide, chondroitin disaccharide-4S] as the molecule, how does the “effect on type I collagen degradation by cathepsin K in the presence of CSA” value (from here on “effect on type I collagen degradation”) (cathepsin K/CSA complex) read?
**A.** identical

**Q.** And the “effect on CSA/cathepsin K complex formation” value (cathepsin K [1])?
**A.** did not interfere with complex formation

**Q.** And the “formation of a high molecular weight complex with cathepsin K” value (cathepsin K [1])?
**A.** unable to generate high-molecular complexes with cathepsin K

**Q.** And the “effect on fluorescence signal of FL-CSA/Cat K complex” value (shortened to “effect … of FL-CSA/Cat K complex”) (CSA/Cat K complex)?
**A.** did not show any effect

**Q.** Which results are given for `[Cl-].[Na+]` [NaCl]?
**A.** effect on cathepsin K complex formation (cathepsin K [1]; elution in the presence of 300 mM NaCl, cathepsin K/CSA mixture): inhibits the formation of cathepsin K complexes; effect on cathepsin K/CSA complex (cathepsin K [2]; 300 mM NaCl in agarose gel and running buffer, 0.1% CSA): the complex dissociated

**Q.** With “Cat L: human cathepsin L, closely related cysteine protease” as the molecule, how does the “complex formation with CSA” value [3] read?
**A.** Only cathepsin K formed a stable complex

**Q.** For dermatan sulfate, which “elution volume (Ve) of the complex with cathepsin K” value (“elution volume (Ve) of the complex” below) (cathepsin K [1]) is on record?
**A.** 14 mL

**Q.** What about the “effect … of FL-CSA/Cat K complex” value (CSA/Cat K complex) of the same molecule?
**A.** decrease the fluorescence signal

**Q.** Which “effect on type I collagen degradation” value (cathepsin K/CSA complex) does the source give for dextran here?
**A.** identical

**Q.** And the “formation of a high molecular weight complex with cathepsin K” value (cathepsin K [1])?
**A.** did not form a high molecular weight complex with cathepsin K

**Q.** And the “effect … of FL-CSA/Cat K complex” value (CSA/Cat K complex)?
**A.** did not show any effect

**Q.** For dextran sulfate, which “collagenase activity of the complex formed with cathepsin K (type I collagen)” value (cathepsin K/CSA complex) is on record?
**A.** did not exhibit collagenase activity

**Q.** And the “effect on type I collagen degradation” value (cathepsin K/CSA complex)?
**A.** prevents the degradation of type I collagen

**Q.** What about the “elution volume (Ve) of the complex” value (cathepsin K [1]) of the same molecule?
**A.** 13.5 mL

**Q.** And the “effect on CSA/cathepsin K complex formation” value (cathepsin K [1])?
**A.** prevented the formation of a cathepsin K/CSA complex

**Q.** And the “effect on CSA/cathepsin K complex formation” value (cathepsin K [2])?
**A.** blocked

**Q.** And the “affinity to cathepsin K relative to CSA” value (cathepsin K [2])?
**A.** bind with a higher affinity to cathepsin K than CSA

**Q.** And the “effect … of FL-CSA/Cat K complex” value (CSA/Cat K complex)?
**A.** decrease the fluorescence signal

**Q.** Which “effect … of FL-CSA/Cat K complex” value (CSA/Cat K complex) does the source give for heparan sulfate here?
**A.** decrease the fluorescence signal

**Q.** Which “collagenase activity of the complex formed with cathepsin K (type I collagen)” value (cathepsin K/CSA complex) does the source give for poly-D-Glu here?
**A.** did not exhibit collagenase activity

**Q.** And the “effect on type I collagen degradation” value (cathepsin K/CSA complex)?
**A.** prevents the degradation of type I collagen

**Q.** And the “elution volume (Ve) of the complex” value (cathepsin K [1])?
**A.** 14.2 mL

**Q.** And the “effect on CSA/cathepsin K complex formation” value (cathepsin K [1])?
**A.** prevented the formation of a cathepsin K/CSA complex

**Q.** What about the “effect on CSA/cathepsin K complex formation” value (cathepsin K [2]) of the same molecule?
**A.** blocked

**Q.** What about the “affinity to cathepsin K relative to CSA” value (cathepsin K [2]) of the same molecule?
**A.** bind with a higher affinity to cathepsin K than CSA

**Q.** For poly-alanine, which “effect … of FL-CSA/Cat K complex” value (CSA/Cat K complex) is on record?
**A.** did not show any effect

**Q.** With poly-aspartic acid as the molecule, how does the “effect … of FL-CSA/Cat K complex” value (CSA/Cat K complex) read?
**A.** decrease the fluorescence signal

**Q.** Which “effect … of FL-CSA/Cat K complex” value (CSA/Cat K complex) does the source give for poly-glutamic acid here?
**A.** decrease the fluorescence signal

**Q.** With poly-lysine as the molecule, how does the “effect … of FL-CSA/Cat K complex” value (CSA/Cat K complex) read?
**A.** did not show any effect

— patent US7799326B2, “Methods and compositions for cathespin k complex-mediated disorders” (Mount Sinai School of Medicine, priority 2001, dated 2010)
